According to PubChem BioAssay (NCI):
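Where inhibition never reached the appropriate level, the endpoint shown equals the highest concentration tested. Otherwise, values were interpolated linearly from a five-concentration, 48-hour dose response in 96-well plates. Here, GI50 denotes the concentration required for 50% inhibition of growth. TGI: concentration producing complete growth inhibition.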

Assays:
Assay in all cases: inhibition of tumour cell growth, NCI panel, 48 h
[1] = tested on: COLO 205 colon
[2] = tested on: UO-31 renal
[3] = tested on: SF-539 CNS
[4] = tested on: SW-620 colon
[5] = tested on: SF-268 CNS
[6] = tested on: NCI/ADR-RES ovarian
[7] = tested on: OVCAR-5 ovarian
[8] = tested on: SK-MEL-5 melanoma
[9] = tested on: HCC-2998 colon
[10] = tested on: SF-295 CNS
[11] = tested on: M14 melanoma
[12] = tested on: K-562 leukemia
[13] = tested on: IGROV1 ovarian
[14] = tested on: SK-MEL-2 melanoma
[15] = tested on: SR leukemia
[16] = tested on: A498 renal
[17] = tested on: RXF 393 renal
[18] = tested on: HS 578T breast
[19] = tested on: MDA-MB-231 breast
[20] = tested on: PC-3 prostate
[21] = tested on: HOP-62 NSCLC
[22] = tested on: TK-10 renal
[23] = tested on: LOX IMVI melanoma
[24] = tested on: MDA-MB-435
[25] = tested on: SNB-75 CNS
[26] = tested on: MALME-3M melanoma
[27] = tested on: SK-MEL-28 melanoma
[28] = tested on: NCI-H23 lung
[29] = tested on: HOP-92 NSCLC
[30] = tested on: HCT-15 colon
[31] = tested on: SNB-19 CNS
[32] = tested on: OVCAR-8 ovarian
[33] = tested on: HCT-116 colon
[34] = tested on: CCRF-CEM leukemia
[35] = tested on: HT29 colon
[36] = tested on: DU-145 prostate
[37] = tested on: NCI-H226 lung
[38] = tested on: MOLT-4 leukemia
[39] = tested on: MCF7 breast
[40] = tested on: SK-OV-3 ovarian
[41] = tested on: RPMI-8226 leukemia
[42] = tested on: UACC-62 melanoma
[43] = tested on: T-47D breast
[44] = tested on: UACC-257 melanoma
[45] = tested on: SN12C renal
[46] = tested on: OVCAR-3 ovarian
[47] = tested on: 786-0 renal
[48] = tested on: OVCAR-4 ovarian
[49] = tested on: EKVX NSCLC
[50] = tested on: U251 CNS
[51] = tested on: NCI-H460 lung
[52] = tested on: KM12 colon
[53] = tested on: NCI-H522 lung
[54] = tested on: BT-549 breast
[55] = tested on: A549 NSCLC
[56] = tested on: ACHN renal
[57] = tested on: HL-60(TB) leukemia

For `COc1cc(O)c2c(c1)[C@H]1O[C@@H]1C[C@H](O)[C@H](O)C(=O)/C=C\C[C@H](C)OC2=O`, the GI50 [1] was 22.6 nM, the TGI [1] was 4.02 µM and the GI50 [2] was 561 nM. For the same compound, the TGI [2] was over 21.6 µM, the GI50 [3] was 4.68 µM and the TGI [3] was 12.6 µM. For the same compound, the GI50 [4] was 560 nM, the TGI [4] was 6.36 µM and the GI50 [5] was 6.54 µM. The TGI [5] was over 28.5 µM, the GI50 [6] was 8.56 µM and the TGI [6] was over 33.3 µM. For the same compound, the GI50 [7] was 3.98 µM, the TGI [7] was over 33.3 µM and the GI50 [8] was 1580 nM. It also gave a TGI [8] of 10.3 µM, a GI50 [9] of 4.85 µM and a TGI [9] of 19 µM. The GI50 [10] was 9.57 µM, the TGI [10] was over 33.3 µM and the GI50 [11] was 48.3 nM. The TGI [11] was 6.84 µM, the GI50 [12] was 2090 nM and the TGI [12] was over 33.3 µM. The GI50 [13] was 1270 nM, the TGI [13] was over 33.3 µM and the GI50 [14] was 1680 nM. For the same compound, the TGI [14] was 10.5 µM, the GI50 [15] was 3.08 µM and the TGI [15] was over 30.6 µM. For the same compound, the GI50 [16] was 1930 nM, the TGI [16] was 9.51 µM and the GI50 [17] was 1560 nM. The TGI [17] was 8.19 µM, the GI50 [18] was 5.92 µM and the TGI [18] was 27 µM. It also gave a GI50 [19] of 2050 nM, a TGI [19] of 16.2 µM and a GI50 [20] of 11.5 µM. For the same compound, the TGI [20] was over 33.3 µM, the GI50 [21] was 8.97 µM and the TGI [21] was over 29.7 µM. It also gave a GI50 [22] of 1690 nM, a TGI [22] of 20.3 µM and a GI50 [23] of 1250 nM. It also gave a TGI [23] of over 19.3 µM, a GI50 [24] of 298 nM and a TGI [24] of 7.15 µM. It also gave a GI50 [25] of 6.11 µM, a TGI [25] of over 33.3 µM and a GI50 [26] of 5.53 nM. It also gave a TGI [26] of 23.1 nM, a GI50 [27] of 44.5 nM and a TGI [27] of 2320 nM. It also gave a GI50 [28] of 1950 nM, a TGI [28] of over 27.3 µM and a GI50 [29] of 176 nM. For the same compound, the TGI [29] was 2880 nM, the GI50 [30] was 1810 nM and the TGI [30] was 23.4 µM. The GI50 [31] was 8.59 µM, the TGI [31] was over 33.3 µM and the GI50 [32] was 6.08 µM. It also gave a TGI [32] of over 28.6 µM, a GI50 [33] of 779 nM and a TGI [33] of over 17.5 µM. It also gave a GI50 [34] of 1540 nM, a TGI [34] of over 33.3 µM and a GI50 [35] of 88.3 nM. It also gave a TGI [35] of 13.4 µM, a GI50 [36] of 3.53 µM and a TGI [36] of over 33.3 µM. For the same compound, the GI50 [37] was 3.71 µM, the TGI [37] was over 27.1 µM and the GI50 [38] was 2650 nM. It also gave a TGI [38] of over 33.3 µM, a GI50 [39] of 2090 nM and a TGI [39] of over 33.3 µM. It also gave a GI50 [40] of 24 µM, a TGI [40] of over 33.3 µM and a GI50 [41] of 1500 nM. The TGI [41] was 14.5 µM, the GI50 [42] was 114 nM and the TGI [42] was 5.33 µM. For the same compound, the GI50 [43] was 774 nM, the TGI [43] was 18.3 µM and the GI50 [44] was 58.4 nM. For the same compound, the TGI [44] was 525 nM, the GI50 [45] was 5.25 µM and the TGI [45] was over 27.7 µM. The GI50 [46] was 2490 nM, the TGI [46] was 16.5 µM and the GI50 [47] was 4.87 µM. The TGI [47] was 27.4 µM, the GI50 [48] was 1070 nM and the TGI [48] was over 33.3 µM. For the same compound, the GI50 [49] was 3.88 µM, the TGI [49] was over 30.8 µM and the GI50 [50] was 8.57 µM. For the same compound, the TGI [50] was over 33.3 µM, the GI50 [51] was 4.96 µM and the TGI [51] was over 21.2 µM. The GI50 [52] was 12.2 µM, the TGI [52] was over 33.3 µM and the GI50 [53] was 599 nM. For the same compound, the TGI [53] was 6.42 µM, the GI50 [54] was 1180 nM and the TGI [54] was 10.7 µM. It also gave a GI50 [55] of 16.7 µM, a TGI [55] of over 33.3 µM and a GI50 [56] of 2140 nM. For the same compound, the TGI [56] was over 33.3 µM, the GI50 [57] was 197 nM and the TGI [57] was over 10.6 µM.
